From US11084800B2 (Achillion Pharmaceuticals, Inc., priority 2017, dated 2021)
pIC50: −log10 of the molar value.

target: Human Factor D (Homo sapiens (Human), UniProt P00746); experiment: Human Factor D Assay; format: biochemical; conditions: Factor D inhibition, assay of Example 10; read-out: IC5 (Stars)
Outline: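 Thioester substrate Z-L-Lys-SBz (100 μM) with Ellman's reagent DTNB (100 μM) reports activity of 80 nM human serum-derived enzyme, kinetically at 405 nm over 30 min. Compound preincubated 5 min, room temperature, pH 7.5 Tris/1 M NaCl; IC50 by nonlinear fit of rates.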

Sequence of Human Factor D (P00746 26-253): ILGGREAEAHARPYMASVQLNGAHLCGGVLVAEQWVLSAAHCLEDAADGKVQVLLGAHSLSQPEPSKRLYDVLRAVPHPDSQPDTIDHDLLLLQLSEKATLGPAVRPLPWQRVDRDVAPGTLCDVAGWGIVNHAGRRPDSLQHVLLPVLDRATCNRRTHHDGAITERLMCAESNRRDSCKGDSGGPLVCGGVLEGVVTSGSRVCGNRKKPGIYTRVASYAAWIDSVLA

| pIC50 | Structure (SMILES) |
| --- | --- |
| > 6.00 | CC(=O)c1nn(CC(=O)N2[C@H](C(=O)Nc3nc(Br)c(F)cc3C)C[C@@]3(CN4CC(F)(F)C4)C[C@@H]23)c2cnc(-c3cnc(C)nc3)cc12 [Compound 250, (1R,3S,5R)-2-(2-(3-acetyl-5-(2-methylpyrimidin-5-yl)-1H-pyrazolo[3,4-c]pyridin-1-yl)acetyl)-N-(6-bromo-5-fluoro-3-methylpyridin-2-yl)-5-((3,3-difluoroazetidin-1-yl)methyl)-2-azabicyclo[3.1.0]hexane-3-carboxomide] |
| > 6.00 | CC(=O)c1nn(CC(=O)N2[C@H](C(=O)Nc3nc(Br)c(F)cc3C)C[C@@]3(CF)C[C@@H]23)c2cnc(-c3cnc(C)nc3)cc12 [Compound 251] |
| > 6.00 | CC(=O)c1nn(CC(=O)N2[C@H](C(=O)Nc3nc(Br)c(F)cc3C)C[C@@]3(CN4CC5(CCCC5)C4)C[C@@H]23)c2cnc(-c3cnc(C)nc3)cc12 [Compound 252, (1R,3S,5R)-5-(2-azaspirp[3.4]octan-2-ylmethyl)-2-(2-(3-acetyl-5-(2-methylpyrimidin-5-yl)-1H-pyrazole[3,4-c]pyridin-1-yl)acetyl)-N-(6-bromo-5-fluoro-3-methylpyridin-2-yl)-2-azabicyclo[3.1.0]hexane-3-carboxomide] |
| > 6.00 | CC(=O)c1nn(CC(=O)N2[C@H](C(=O)Nc3nc(Br)c(F)cc3C)C[C@@]3(CN4C[C@H]5CCC[C@H]5C4)C[C@@H]23)c2cnc(-c3cnc(C)nc3)cc12 [Compound 253, (1R,3S,5R)-2-(2-(3-acetyl-5-(2-methylpyrimidin-5-yl)-1H-pyrazolo[3,4-c]pyridin-1-yl)acetyl)-N-(6-bromo-5-fluoro-3-methylpyridin-2-yl)-5-(((3aR,6aS)-hexahydrocyclopenta [c]pyrrol-2(1H)-yl)methyl)-2-azabicyclo[3.1.0]hexane-3-carboxamide] |
| > 6.00 | CC(=O)c1nn(CC(=O)N2[C@H](C(=O)Nc3nc(Br)c(F)cc3C)C[C@@]3(C)C[C@@H]23)c2cnc(-c3cnc(C)[n+]([O-])c3)cc12 [Compound 254, 5-(3-acetyl-1-(2-((1R,3S,5R)-3-((6-bromo-5-fluoro-3-methylpyridin-2-yl)carbamoyl)-5-methyl-2-azabicyclo[3.1.0]hexane-2-yl)-2-oxoethyl)-1H-pyrazolo[3,4-c]pyridin-5-yl)-2-methylpyrimidine 1-oxide] |
| > 6.00 | CC(=O)c1nn(CC(=O)N2[C@H](C(=O)Nc3nc(OC(F)(F)F)ccc3C)C[C@@]3(C)C[C@@H]23)c2cnc(-c3cnc(C)nc3)cc12 [Compound 256] |
| > 6.00 | CC(=O)c1nn(CC(=O)N2[C@H](C(=O)Nc3nc(Br)ccc3CC(C)C)C[C@@]3(C)C[C@@H]23)c2cnc(-c3cnc(C)nc3)cc12 [Compound 258, (1R,3S,5R)-2-(2-(3-acetyl-5-(2-methylpyrimidin-5-yl)-1H-pyrazolo[3,4-c]pyridin-1-yl)acetyl)-N-(6-bromo-3-isobutylpyridin-2-yl)-5-methyl-2-azabicyclo[3.1.0]hexane-3-carboxamide] |
| > 6.00 | CC(=O)c1nn(CC(=O)N2[C@H](C(=O)Nc3nc(Br)ccc3C)C[C@@]3(CN(CCO)CCO)C[C@@H]23)c2cnc(-c3cnc(C)nc3)cc12 [Compound 262, (1R,3S,5R)-2-(2-(3-acetyl-5-(2-methylpyrimidin-5-yl)-1H-pyrazolo[3,4-c]pyridin-1-yl)acetyl)-5-((bis(2-hydroxyethyl)amino)methyl)-N-(6-bromo-3-methylpyridin-2-yl)-2-azabicyclo[3.1.0] hexane-3-carboxamide] |
| > 6.00 | CC(=O)c1nn(CC(=O)N2[C@H](C(=O)Nc3nc(Br)c(F)cc3C)C[C@@]3(CN(C)C)C[C@@H]23)c2cnc(-c3cnc(C)nc3)cc12 [Compound 264, (1R,3S,5R)-2-(2-(3-acetyl-5-(2-methylpyrimidin-5-yl)-1H-pyrazolo[3,4-c]pyridin-1-yl)acetyl)-N-(6-bromo-5-fluoro-3-methylpyridin-2-yl)-5-((dimethylamino)methyl)-2-azabicyclo[3.1.0] hexane-3-carboxamide] |
| > 6.00 | CC(=O)c1nn(CC(=O)N2[C@H](C(=O)Nc3nc(Br)c(F)cc3C)C[C@@]3(C)C[C@@H]23)c2c(C(F)(F)F)nc(-c3cnc(C)nc3)cc12 [Compound 271, (1R,3S,5R)-2-(2-(3-acetyl-5-(2-methylpyrimidin-5-yl)-7-(trifluoromethyl)-1H-pyrazolo[3,4-c]pyridin-1-yl)acetyl)-N-(6-bromo-5-fluoro-3-methylpyridin-2-yl)-5-methyl-2-azabicyclo[3.1.0]hexane-3-carboxamide] |
| > 6.00 | CC(=O)c1nn(CC(=O)N2[C@H](C(=O)Nc3nc(Br)ccc3CN3CC4CC3CO4)C[C@@]3(C)C[C@@H]23)c2cnc(-c3cnc(C)nc3)cc12 (stereo partly drawn) [Compound 277, (1R,3S,5R)-N-(3-(2-oxa-5-azabicyclo[2.2.1]heptan-5-ylmethyl)-6-bromopyridin-2-yl)-2-(2-(3-acetyl-5-(2-methylpyrimidin-5-yl)-1H-pyrazolo[3,4-c]pyridin-1-yl)acetyl)-5-methyl-2-azabicyclo[3.1.0]hexane-3-carboxamide] |

| Structure (SMILES) | pIC50 |
| --- | --- |
| CC(=O)c1nn(CC(=O)N2[C@H](C(=O)Nc3nc(Br)c(F)cc3C)C[C@@]3(CN(C)C)C[C@@H]23)c2c(C)cc(-c3cnc(C)nc3)cc12 [Compound 263, (1R,3S,5R)-2-(2-(3-acetyl-7-methyl-5-(2-methylpyrimidin-5-yl)-1H-indazol-1-yl)acetyl)-N-(6-bromo-5-fluoro-3-methylpyridin-2-yl)-5-((dimethylamino)methyl)-2-azabicyclo[3.1.0] hexane-3-carboxamide] | > 6.00 |
| CC(=O)c1nn(CC(=O)N2[C@H](C(=O)Nc3nc(Br)ccc3C)C[C@@]3([C@H](O)CO)C[C@@H]23)c2cnc(-c3cnc(C)nc3)cc12 [Compound 282] | > 6.00 |
| CC[C@@]12C[C@@H](C(=O)Nc3nc(Br)ccc3C)N(C(=O)Cn3nc(C(C)=O)c4cc(-c5cnc(C)nc5)ccc43)[C@@H]1C2 [Compound 286, (1R,3S,5R)-2-(2-(3-acetyl-5-(2-methylpyrimidin-5-yl)-1H-indazol-1-yl)acetyl)-N-(6-bromo-3-methylpyridin-2-yl)-5-ethyl-2-azabicyclo[3.1.0]hexane-3-carboxamide] | > 6.00 |
| CC(=O)c1nn(CC(=O)N2[C@H](C(=O)Nc3nc(Br)ccc3C)C[C@@]3(CCS(C)(=N)=O)C[C@@H]23)c2c(C)cc(-c3cnc(C)nc3)cc12 (stereo partly drawn) [Compound 287, (1R,3S,5R)-2-(2-(3-acetyl-7-methyl-5-(2-methylpyrimidin-5-yl)-1H-indazol-1-yl)acetyl)-N-(6-bromo-3-methylpyridin-2-yl)-5-(2-(S-methylsulfonimidoyl)ethyl)-2-azabicyclo[3.1.0]hexane-3-carboxamide] | > 6.00 |

same assay, conditions: Table 8; Factor D 80 nM, substrate Z-L-Lys-SBz; read-out: IC50

| Structure (SMILES) | pIC50 |
| --- | --- |
| C=CCCCC(=O)NC[C@@]12C[C@@H](C(=O)Nc3nc(Br)ccc3C)N(C(=O)Cn3nc(C(C)=O)c4cc(-c5cnc(C)nc5)cc(CCC=C)c43)[C@@H]1C2 [Compound 266, (1R,3S,5R)-2-(2-(3-acetyl-7-(but-3-en-l-yl)-5-(2-methylpyrimidin-5-yl)-1H-indazol-1-yl)acetyl)-N-(6-bromo-3-methylpyridin-2-yl)-5-(hex-5-enamidomethyl)-2-azabicyclo[3.1.0]hexane-3-carboxamide] | > 6.00 |
